Data set [1] concerns the target T1, human NNMT (Homo sapiens, UniProt P40261).
T1 sequence (P40261 1-264): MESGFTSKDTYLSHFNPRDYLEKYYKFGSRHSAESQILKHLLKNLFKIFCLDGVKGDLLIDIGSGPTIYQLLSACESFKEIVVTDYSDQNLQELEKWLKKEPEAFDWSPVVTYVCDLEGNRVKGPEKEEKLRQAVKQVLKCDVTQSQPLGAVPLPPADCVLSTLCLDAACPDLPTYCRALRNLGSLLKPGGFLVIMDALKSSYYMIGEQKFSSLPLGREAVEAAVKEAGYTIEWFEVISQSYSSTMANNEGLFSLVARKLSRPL
The data set is described as follows: Fluorescence-based NNMT enzymatic assay (human enzyme). The format is biochemical. Particulars: for IC50: read-out: hNNMT IC50. The method, then:
(§1) Experimental Procedures S2: Fluorescence-based NNMT enzymatic assay
(§2) NNMT activity was measured by fluorescence based assay. The product MNA formed in the reaction reacts with acetophenone in the presence of KOH and formic acid and forms a fluorescent product 2, 7- naphthyridine. The fluorescence intensity measured with excitation at 375nm and emission at 430nm. Inhibitors were screened using human, mouse and monkey NNMT enzymes. Different concentrations of inhibitors were pre-incubated along with 5ng/well of human NNMT enzyme and 3.42ng/well of mouse NNMT enzyme for 30 minutes at room temperature. Reaction was initiated by addition of SAM and nicotinamide mixture (7µM, 20µM, 8µM SAM and 6µM, 20µM, 9µM nicotinamide for human, mouse and monkey NNMT assays respectively) and incubated for 60 minutes at 37°C. The final assay reaction mixture contained a buffer of 100mM Tris Hcl pH 7.5, 0.04% BSA, 2mM Dithiothreitol and 1% DMSO. The reaction was terminated by addition of Ethanol: Acetophenone mix (75% ethanol: 25% Acetophenone) and 5M potassium Hydroxide prepared with 50% Ethanol. The reaction was incubated for 15 minutes followed by addition of 100µl of 60% formic acid and further incubation for 60 minutes at room temperature. A fluorescent product 2, 7- naphthyridine was measured in a Tecan reader with excitation at 375nm and emission at 430nm. The IC50 values were determined by fitting the inhibition curves (percent inhibition versus inhibitor concentration) using a four parametric sigmoidal dose response in graph pad prism. […]

A further data set deals with T2, mouse NNMT (Mus musculus, UniProt O55239).
T2 sequence (O55239 1-264): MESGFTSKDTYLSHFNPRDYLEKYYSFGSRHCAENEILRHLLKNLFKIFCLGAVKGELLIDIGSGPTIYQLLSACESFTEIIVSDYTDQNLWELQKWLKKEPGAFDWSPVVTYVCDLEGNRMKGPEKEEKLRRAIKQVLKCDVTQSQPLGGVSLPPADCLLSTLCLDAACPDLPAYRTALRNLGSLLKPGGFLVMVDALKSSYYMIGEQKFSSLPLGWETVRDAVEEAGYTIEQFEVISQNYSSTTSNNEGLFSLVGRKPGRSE
The data set is described as follows: Fluorescence-based NNMT enzymatic assay (mouse enzyme). Particulars: read-out: mNNMT IC50. The format is biochemical. The method, then:
as §1, §2

Data set [2] has as its target T3, human NNMT (Homo sapiens, UniProt P40261, E101A/E103A/K100A).
T3 construct: His-tag; thrombin protease site; made in house
T3 sequence (P40261 1-264 K100A/E101A/E103A): T1 sequence (P40261 1-264) with K100A, E101A, E103A
Kind of data set: Thermal shift (DSF) measurement of NNMT stabilisation. The settings on record: together with cofactor (reaction product) SAH. The format is binding.

A further data set has as its target CYP3A4 (Homo sapiens, UniProt P08684). The data set is described as follows: CYP3A4 inhibition. The format is in vitro ADME.
Data set [3] can be described thus: Metabolic stability in liver microsomes (species not specified). The format is in vitro ADME. As for the experimental part:
(§3) Experimental Procedures S3: Metabolic stability in human and mouse liver microsomes
(§4) These profiling studies were carried out as described in Mullangi R. et. al. Preclinical assessment of
(§5) ulixertinib, a novel ERK1/2 inhibitor, ADMET & DMPK, 2017, 212-223;
A general note: Liver microsomes are a subcellular fraction often used to study metabolism.

Data set [4] in a line: Metabolic stability in human liver microsomes. In kind it is in vitro ADME. Set-up: HLM: unit not given beside the values. Particulars: for remaining at 1 h: human liver microsomes, read-out: HLM % Remaining at 1 h. As for the experimental part: as §3, §4, §5
Data set [5] in a line: Metabolic stability in rat liver microsomes. In kind it is in vitro ADME. Particulars: read-out: RLM % Remaining at 1 h.
Data set [6] is described as follows: Metabolic stability in mouse liver microsomes. In kind it is in vitro ADME. Particulars: for remaining at 1 h: mouse liver microsomes, read-out: MLM % Remaining at 1 h. As for the experimental part: as §3, §4, §5
A further data set concerns NNMT. Particulars: substrate of NNMT; cited from earlier work.

SMILES strings stand for the structures. Residue numbers refer to the chain shown, from its start. Like-named read-outs stand apart in the source and are kept apart here. Where only a bound is given, the exact number is not on record here.

Sequence of CYP3A4 (P08684 whole entry, species assumed): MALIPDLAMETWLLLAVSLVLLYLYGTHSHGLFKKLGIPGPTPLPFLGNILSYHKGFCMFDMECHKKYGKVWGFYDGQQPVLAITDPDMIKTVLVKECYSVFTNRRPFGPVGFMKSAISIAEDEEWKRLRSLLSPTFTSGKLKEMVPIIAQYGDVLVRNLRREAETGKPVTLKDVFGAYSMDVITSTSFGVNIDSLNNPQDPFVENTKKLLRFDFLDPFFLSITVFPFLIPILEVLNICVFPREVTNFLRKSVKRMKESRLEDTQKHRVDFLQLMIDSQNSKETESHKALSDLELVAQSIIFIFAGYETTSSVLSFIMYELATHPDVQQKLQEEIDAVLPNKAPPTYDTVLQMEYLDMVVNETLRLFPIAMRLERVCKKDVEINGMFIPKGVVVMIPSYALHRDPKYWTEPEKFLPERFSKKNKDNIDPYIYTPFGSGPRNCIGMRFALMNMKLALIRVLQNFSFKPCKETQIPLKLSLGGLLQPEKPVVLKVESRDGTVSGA

With `N=c1sc2cccc3c2n1CCC3` [Compound 2], the mode of inhibition entry at human NNMT [1] (competition with substrates nicotinamide / SAM) is “competitive inhibitors either of nicotinamide alone”. Also, the IC50 at human NNMT [1] amounted to 1.3 µM; on mouse NNMT, 2.3 µM. In addition, the “stabilization in DSF experiments, in words” value on human NNMT [2] was “strong additive stabilization”.

Regarding `CN1Cc2cccc3c2N(CCC3)C1=N` [Compound 4], on human NNMT [1], the “hNNMT potency, in words” value was “two-digit nano-molar potency” and the half-maximal inhibitory concentration (IC50) was 0.07 µM. The IC50 on mouse NNMT came out at 0.1 µM. Further, the CYP3A4 inhibition liabilities result at CYP3A4 is “no CYP3A4 inhibition liabilities were detected”. In data set [3], the “metabolic stability, in words” value is on record as “in an acceptable range”.

For `Cc1nn(CC(C)(O)C(=O)N2CCN(c3cccc4[nH]c(=O)ccc34)CC2)cc1-c1cccc(F)c1` (centres unmarked) [Compound 21], at human NNMT [1], the “hNNMT potency, in words” value is listed as “reasonable potency”. Besides, the results for the IC50 at human NNMT [1] and on mouse NNMT were 0.25 µM and 1.64 µM, respectively. Further, the share remaining at 1 h was 20% in [4], below 5% in data set [5] and below 5% in data set [6]. Further, the “metabolic stability, in words” value in [3] was “did not improve”.

In the case of `Cc1nn(CC(C)(O)C(=O)N2CCN(c3cccc4c3ccc(=O)n4C)CC2)cc1-c1cccc(F)c1` (centres unmarked) [Compound 23], the IC50 on human NNMT [1] worked out at 0.15 µM; on mouse NNMT, 1 µM. In addition, the share remaining at 1 h in data set [4] and in [6] was below 5% in each case. Moreover, the “metabolic stability, in words” value in data set [3] was “did not improve”.

As to `Cc1nn(CC(C)(O)C(=O)N2CCC(O)(c3cccc4cnccc34)CC2)cc1-c1cccc(F)c1` (centres unmarked) [Compound 31], the figures for the IC50 on human NNMT [1] (Table 3) and on mouse NNMT (Table 3) were 0.11 µM and 0.56 µM, respectively. Also, on human NNMT [1] (comparator not stated), the increase in potency result is “three-fold increase”. The HLM in data set [4] (Table 3, human liver microsome data, head HLM/MLM without unit) is given as 23. Further, in data set [6] (Table 3, mouse liver microsome data, head HLM/MLM without unit), the MLM is recorded as below 5. Also, the “metabolic stability, in words” value in data set [3] is “insufficient for further profiling”.

With `C[S+](CC[C@H](N)C(=O)[O-])C[C@H]1O[C@@H](n2cnc3c(N)ncnc32)[C@H](O)[C@@H]1O` (some centres unmarked) [SAM, S-adenosyl-methionine], the Km with NNMT was 1.8 µM.

`NC(=O)c1cccnc1` [nicotinamide]: the Michaelis constant (Km) in the data set with NNMT was 400 µM.

As usually defined, the IC50 is the midpoint of a concentration-inhibition curve. In general, amount remaining refers to what is left of the initial amount, in per cent. As a reminder, the Km is the concentration of substrate that gives half-maximal velocity.
